{"source": "patent US6896883B2", "about": "(priority 1997, dated 2005)", "tested_on": "F. graminearum", "type": "in vivo", "conditions": "wheat seeds in F. graminearum-infested soil, 7 days after planting", "data": [{"smiles": "c1ccc2[nH]c(-c3cscn3)nc2c1", "note": "[Thiabendazole, thiabendazole]", "values": [{"measurement": "% Germination", "value": 80, "unit": "a %"}]}]}
